Results taken from US20250221966A1, “RXFP1 AGONISTS” (BRISTOL-MYERS SQUIBB COMPANY, priority 2021, published 2025).

The compounds below were run against T1, human RXFP1 (Homo sapiens, UniProt Q9HBX9) (assay: RXFP1 cAMP assay (hRXFP1 HEK293 cAMP assay, HTRF)). Conditions: HEK293 cells stably expressing human RXFP1, 30 min at room temperature, read-out: cAMP hRXFP1 HEK293 Assay EC50.
T1 construct: expressed in transfected cells
T1 sequence (Q9HBX9 1-757): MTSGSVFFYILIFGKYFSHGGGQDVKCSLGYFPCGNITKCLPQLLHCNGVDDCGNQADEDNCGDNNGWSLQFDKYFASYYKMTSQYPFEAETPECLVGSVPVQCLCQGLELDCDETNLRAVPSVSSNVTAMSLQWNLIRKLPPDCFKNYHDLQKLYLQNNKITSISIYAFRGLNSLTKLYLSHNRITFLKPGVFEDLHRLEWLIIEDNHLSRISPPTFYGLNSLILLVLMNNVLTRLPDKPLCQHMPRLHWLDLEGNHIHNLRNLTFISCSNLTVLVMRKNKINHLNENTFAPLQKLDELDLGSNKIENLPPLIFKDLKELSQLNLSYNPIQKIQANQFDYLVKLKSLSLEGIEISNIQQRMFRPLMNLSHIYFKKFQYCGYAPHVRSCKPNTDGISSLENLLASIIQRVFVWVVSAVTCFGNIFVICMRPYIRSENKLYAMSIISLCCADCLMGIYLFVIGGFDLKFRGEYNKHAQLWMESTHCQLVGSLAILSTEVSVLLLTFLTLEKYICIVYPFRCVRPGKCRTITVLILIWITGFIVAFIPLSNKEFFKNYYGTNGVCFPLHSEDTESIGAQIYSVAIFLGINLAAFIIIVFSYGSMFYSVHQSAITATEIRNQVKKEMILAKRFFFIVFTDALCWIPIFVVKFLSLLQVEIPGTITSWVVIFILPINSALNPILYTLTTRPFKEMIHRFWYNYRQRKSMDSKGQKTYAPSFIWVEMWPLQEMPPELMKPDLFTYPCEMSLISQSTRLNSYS
Type: cell-based
Method in brief: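 Intracellular cAMP was read by HTRF, with potency fitted to a 4-parameter logistic curve. Compound exposure (0.010 nM–50 μM final, 2% DMSO) lasted 30 min at room temperature. Cells were hRXFP1-HEK293 at 1500 per well in IBMX-containing (0.5 mM) HEPES-buffered HBSS.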

Compound	EC50 [nM]
COc1ccc(-c2cc(CO)ccc2F)cc1C(=O)N[C@@H]1C2CCC(/C2=C/c2cnoc2)[C@@H]1C(=O)Nc1ccc(F)c(C(F)(F)F)c1 (stereo partly drawn) [compound 176]	57
COc1ccc(-c2ccc(C(=O)O)cc2F)cc1C(=O)N[C@@H]1C2CCC(/C2=C/C(F)(F)F)[C@@H]1C(=O)Nc1ccc(F)c(C(F)(F)F)c1 (stereo partly drawn) [compound 293]	32
COc1ccc(-c2cc([C@H](OC(=O)NC3CCC3)C(F)(F)F)ccc2F)cc1C(=O)N[C@@H]1C2CCC(/C2=C/CCC(F)(F)F)[C@@H]1C(=O)Nc1ccc(F)c(C(F)(F)F)c1 (stereo partly drawn) [compound 923]	4.7
COc1cc(F)c(F)cc1C(=O)N[C@@H]1C2CCC(/C2=C/c2ccccc2)[C@@H]1C(=O)Nc1cccc(S(=O)(=O)C(F)(F)F)c1 (stereo partly drawn) [Example 127]	49
COc1ccc(-c2cc(C(C)CC(=O)O)ccc2F)cc1C(=O)N[C@H]1[C@@H](C(=O)Nc2ccc(F)c(C(F)(F)F)c2)[C@H]2CC[C@@H]1/C2=C\C1CC1 (stereo partly drawn) [compound 887]	5.5
COc1ccc(C2=NOC3CC(CO)CC23)cc1C(=O)N[C@H]1[C@@H](C(=O)Nc2ccc(F)c(C(F)(F)F)c2)[C@H]2CC[C@@H]1/C2=C\C(C)C (stereo partly drawn) [compound 450]	1.6
COc1ccc(C2=NOC3CCCC23)cc1C(=O)N[C@@H]1C2CCC(/C2=C/C2CC2)[C@@H]1C(=O)Nc1ccc(F)c(C(F)(F)F)c1 (stereo partly drawn) [Example 439, (1R,2S,3R,4R,Z)-7-(cyclopropylmethylene)-N-(4-fluoro-3-(trifluoromethyl)phenyl)-3-(2-methoxy-5-(3a,5,6,6a-tetrahydro-4H-cyclopenta[d]isoxazol-3-yl)benzamido)bicyclo[2.2.1]heptane-2-carboxamide]	30
COc1c(F)cc(C2=NOC3COCC23)cc1C(=O)N[C@H]1[C@@H](C(=O)Nc2ccc(F)c(C(F)(F)F)c2)[C@H]2CC[C@@H]1/C2=C\C1CC1 (stereo partly drawn) [compound 791]	0.8
COCC1(NC(=O)[C@@H]2[C@H](NC(=O)c3cc(C4=NOC5COCC45)ccc3OC)[C@@H]3CC[C@H]2/C3=C/C2CC2)CCCC1 (stereo partly drawn) [compound 632]	190
COc1ccc(C2=NOC3CCCC23)cc1C(=O)N[C@H]1[C@@H](C(=O)Nc2ccc(F)c(C(F)(F)F)c2)[C@H]2CC[C@@H]1/C2=C\C1CC1 (single isomer, unassigned) [compound 662]	360
COc1ccc(-c2cc([C@H](OC(=O)NC3CCC3)C(=O)O)ccc2F)cc1C(=O)N[C@H]1[C@@H](C(=O)Nc2ccc(F)c(C(F)(F)F)c2)[C@H]2CC[C@@H]1/C2=C\CC(C)C [compound 937]	5.8
COc1ccc(C2=NOC3CN(C(=O)OC(C)(C)C)CC23)cc1C(=O)N[C@@H]1C2CCC(/C2=C/C2CC2)[C@@H]1C(=O)Nc1ccc(F)c(C(F)(F)F)c1 (stereo partly drawn) [compound 435]	49
COc1ccc(-c2cccc(OC(F)(F)F)c2)cc1C(=O)N[C@@H]1C2CCC(/C2=C/C2CC2)[C@@H]1C(=O)Nc1ccc(F)c(C(F)(F)F)c1 (stereo partly drawn) [compound 281]	15
COc1ccc(C2=NOC3CC(CO)CC23)cc1C(=O)N[C@H]1[C@@H](C(=O)Nc2ccc(F)c(C(F)(F)F)c2)[C@H]2CC[C@@H]1C2CC(F)(F)F (stereo partly drawn) [compound 550]	34.9
COc1ccc(C2=NOC3COCC23)cc1C(=O)N[C@H]1[C@@H](C(=O)NC2CCC(C(F)(F)F)C2)[C@H]2CC[C@@H]1/C2=C\C1CC1 (single isomer, unassigned) [Example 589]	83.5
COc1ccc(-c2cccc3c2CN(C(=O)C2CCC2)C3)cc1C(=O)N[C@@H]1C2CCC(/C2=C/C2CC2)[C@@H]1C(=O)Nc1ccc(F)c(C(F)(F)F)c1 (stereo partly drawn) [compound 872]	8
COc1ccc(C2=NO[C@H]3C[C@H](CO)C[C@@H]23)cc1C(=O)N[C@H]1[C@@H](C(=O)N[C@H](C)C2(C)CC2)[C@H]2CC[C@@H]1/C2=C\C1CC(F)(F)C1 [compound 823]	2.6
COc1ccc(-c2cnn(CC(=O)O)c2)cc1C(=O)N[C@@H]1C2CCC(/C2=C/c2ccccc2)[C@@H]1C(=O)Nc1ccc(F)c(C(F)(F)F)c1 (stereo partly drawn) [compound 340]	62
COc1ccc(C2=CCNCC2)cc1C(=O)N[C@@H]1C2CCC(C2=C(C)C)[C@@H]1C(=O)Nc1ccc(F)c(C(F)(F)F)c1 (stereo partly drawn) [compound 148]	910
COc1ccccc1CNC(=O)[C@@H]1[C@H](NC(=O)c2cc(C3=NOC4COCC34)ccc2OC)[C@@H]2CC[C@H]1/C2=C/C1CC1 (stereo partly drawn) [compound 681]	606
COc1ccc(-c2cc(C(C)O)ccc2F)cc1C(=O)N[C@@H]1C2CCC(/C2=C/C2CC2)[C@@H]1C(=O)Nc1ccc(F)c(C(F)(F)F)c1 (stereo partly drawn) [compound 248]	4

Compound	EC50 [nM]
COc1ccc(-c2cc(C(C)O)on2)cc1C(=O)N[C@@H]1C2CCC(/C2=C/C2CC2)[C@@H]1C(=O)Nc1ccc(F)c(C(F)(F)F)c1 (stereo partly drawn) [compound 424]	11
COc1ccccc1/C=C1\C2CCC1[C@H](C(=O)Nc1ccc(F)c(C(F)(F)F)c1)[C@@H]2NC(=O)c1cc(F)c(F)cc1OC (stereo partly drawn) [compound 23]	1400
COc1ccc(-c2cnn3c2CC(O)CC3)cc1C(=O)N[C@H]1[C@@H](C(=O)N[C@@H](C)C2(C)CC2)[C@H]2CC[C@@H]1/C2=C\C1CC1 (stereo partly drawn) [compound 871]	4.8
COc1cc(C)c(C2=NOC3CC(CO)CC23)cc1C(=O)N[C@H]1[C@@H](C(=O)Nc2ccc(F)c(C(F)(F)F)c2)[C@H]2CC[C@@H]1/C2=C\C1CC1 (stereo partly drawn) [compound 738]	3.3
COc1ccc(-c2cc(C(O)C(=O)O)ccc2F)cc1C(=O)NC1C2CCC(/C2=C/C2CCN(Cc3ccc(Cl)cc3)C2)C1C(=O)Nc1ccc(F)c(C(F)(F)F)c1 (stereo not drawn) [compound 357]	211
COc1ccc(Br)cc1C(=O)N[C@@H]1C2CCC(/C2=C/C(F)(F)F)[C@@H]1C(=O)Nc1ccc(F)c(C(F)(F)F)c1 (stereo partly drawn) [compound 292]	1860
COc1ccc(-c2cc([C@H](OC(=O)NC3CC3)C(F)(F)F)ccc2F)cc1C(=O)N[C@H]1[C@@H](C(=O)Nc2ccc(F)c(C(F)(F)F)c2)[C@H]2CC[C@@H]1/C2=C\C1CC(F)(F)C1 [compound 931]	2.5
COc1ccc(C2=NOC3CC(C)(CO)CC23)cc1C(=O)N[C@H]1[C@@H](C(=O)Nc2ccc(F)c(C(F)(F)F)c2)[C@H]2CC[C@@H]1/C2=C\C1CCCC1 (stereo partly drawn) [compound 748]	3.3
COc1ccc(-c2cc(C3=NOC(C(=O)O)C3)ccc2F)cc1C(=O)N[C@H]1[C@@H](C(=O)Nc2ccc(F)c(C(F)(F)F)c2)[C@H]2CC[C@@H]1/C2=C\C1CC1 (stereo partly drawn) [compound 948]	8.6
COc1cc(F)c(F)cc1C(=O)N[C@@H]1C2CCC(/C2=C/C(=O)OCc2ccccc2)[C@@H]1C(=O)Nc1ccc(F)c(C(F)(F)F)c1 (stereo partly drawn) [compound 9]	310
COc1cc(C)c(-c2nnc(CO)s2)cc1C(=O)N[C@H]1[C@@H](C(=O)Nc2ccc(F)c(C(F)(F)F)c2)[C@H]2CC[C@@H]1/C2=C\C1CC1 [compound 808]	4.2
COc1ccc(C2=NOC3CC(O)(C(F)(F)F)CC23)cc1C(=O)N[C@H]1[C@@H](C(=O)Nc2ccc(F)c(C(F)(F)F)c2)[C@H]2CC[C@@H]1/C2=C\C1CC1 (stereo partly drawn) [compound 864]	3.8
COc1ccc(-c2cc(-c3nnn[nH]3)ccc2F)cc1C(=O)N[C@@H]1C2CCC(/C2=C/c2ccccc2)[C@@H]1C(=O)Nc1ccc(F)c(C(F)(F)F)c1 (stereo partly drawn) [compound 152]	8
COc1ccc(-c2cc(NC(=O)CC(=O)O)ccc2F)cc1C(=O)N[C@@H]1C2CCC(/C2=C/c2cnoc2)[C@@H]1C(=O)Nc1ccc(F)c(C(F)(F)F)c1 (stereo partly drawn) [compound 175]	17
COc1ccc(-c2ccc3[nH]cc(C(=O)O)c3c2)cc1C(=O)N[C@@H]1C2CCC(/C2=C/C(F)(F)F)[C@@H]1C(=O)Nc1ccc(F)c(C(F)(F)F)c1 (stereo partly drawn) [compound 295]	53
COc1ccc(C2=NC[C@@H]3CCCN23)cc1C(=O)N[C@H]1[C@@H](C(=O)Nc2ccc(F)c(C(F)(F)F)c2)[C@H]2CC[C@@H]1/C2=C\C1CC1 [compound 708]	1360
COc1ccc(-c2cccc(C3=NOC4CC(O)CC34)c2)cc1C(=O)N[C@H]1[C@@H](C(=O)Nc2ccc(F)c(C(F)(F)F)c2)[C@H]2CC[C@@H]1/C2=C\C1CC1 (stereo partly drawn) [compound 902]	8.7
COc1ccc(-c2cc(C(OC(=O)Nc3ccccc3)C(=O)O)ccc2F)cc1C(=O)N[C@H]1[C@@H](C(=O)Nc2ccc(F)c(C(F)(F)F)c2)[C@H]2CC[C@@H]1/C2=C\C1CC1 (stereo partly drawn) [compound 965]	4.8
COC(=O)N1CC=C(c2ccc(OC)c(C(=O)N[C@@H]3C4CCC(C4=C(C)C)[C@@H]3C(=O)Nc3ccc(F)c(C(F)(F)F)c3)c2)CC1 (stereo partly drawn) [compound 143]	2800
COc1ccc(C2=NOC(CO)C2CO)cc1C(=O)N[C@H]1[C@@H](C(=O)Nc2ccc(F)c(C(F)(F)F)c2)[C@H]2CC[C@@H]1/C2=C\C1CC1 (single isomer, unassigned) [compound 481]	6.7
COc1ccc(-c2cc(C(NC(=O)C(F)(F)F)C(=O)O)ccc2F)cc1C(=O)N[C@@H]1C2CCC(/C2=C/C(F)(F)F)[C@@H]1C(=O)Nc1ccc(F)c(C(F)(F)F)c1 (stereo partly drawn) [compound 241]	3
